# Experimental data taken from article PMC10831071, “Reaction hijacking inhibition of Plasmodium falciparum asparagine tRNA synthetase” (Nature Communications, 2024).
# “And” between values parts separate entries of the source, which are not always exact repeats. Identical values can stand only once. Like-named read-outs stand apart in the source and are kept apart here.
# How the values were obtained:
# Assay in all cases: microbe, parasite or virus in culture
# Assay type in all cases: cell-based, Plasmodium falciparum
# [1] = tested on: PfAsnRS cKD P. falciparum line; conditions: for growth after 72 h exposure, normalised to no drug: PfAsnRS K/D, replicates
# Excerpt: (§1) Conditional knockdown (cKD) P. falciparum lines were generated for the cytosolic AsnRS (PF3D7_0211800), cytosolic AlaRS (PF3D7_1367700), cytosolic GlyRS (GlyRS; PF3D7_1420400), PfNT4 (PF3D7_0103200), P. falciparum glutamate dehydrogenase 3 (GDH3; PF3D7_0802000), and P. falciparum carbonic anhydrase (CA, PF3D7_1140000) by fusing the coding sequences and non-coding RNA aptamer sequences in the 3’-UTR, permitting translation regulation using the TetR-DOZI system[59],[60]. Gene editing was achieved by CRISPR/SpCas9 using the linear pSN054 vector that contains cloning sites for the left homology region (LHR) and the right homology region (RHR) as well a target-specific guide RNA under control of the T7 promoter. Cloning into the pSN054 donor vector was carried out following described procedures[59],[60]. The vector includes V5-2xHA epitope tags, a 10x tandem array of TetR aptamers upstream of an Hsp86 3’UTR, and a multicistronic cassette for expression of TetR-DOZI (translation regulation), blasticidin S-deaminase (selection marker) and a Renilla luciferase (RLuc) reporter. All primer and synthetic fragment sequences that were generated using the BioXP™ system and IDT gBlocks™ are included in Supplementary Table 9. The final constructs were sequence-verified and further confirmed by restriction digests.
# (§2) Transfection into Cas9- and T7 RNA polymerase-expressing NF54 parasites was carried out by pre-loading red blood cells (RBCs) with the donor vector[61]. […] Cultures were monitored by Giemsa smears and RLuc measurements.
# (§3) DMSO- and dihydroartemisinin-treatment (0.5 µM) served as reference controls.
# [2] = tested on: PfGDH3 cKD P. falciparum line; conditions: for Growth: PfGDH K/D
# Excerpt: as §1, §2, §3
# [3] = tested on: PfNT4 cKD P. falciparum line; conditions: for growth after 72 h exposure, normalised to no drug: PfNT4 K/D, replicates
# Excerpt: as §1, §2, §3
compound,measurement,setting,value
Nc1ncnc2cc(-c3cccc(S(N)(=O)=O)c3)sc12 [OSM-S-106],"growth after 72 h exposure, normalised to no drug","[1]; 1 nM aTc, 3.125 nM",100 (2×) and 98.2196
same,"growth after 72 h exposure, normalised to no drug","[1]; 1 nM aTc, 6.25 nM",101.298 and 95.7154 and 83.7406
same,"growth after 72 h exposure, normalised to no drug","[1]; 1 nM aTc, 12.5 nM",113.486 and 107.859 and 50.8034
same,"growth after 72 h exposure, normalised to no drug","[1]; 1 nM aTc, 25 nM",72.3501 and 87.3666 and 36.7561
same,"growth after 72 h exposure, normalised to no drug","[1]; 1 nM aTc, 50 nM",8.286 and 14.406 and 55.7128
same,"growth after 72 h exposure, normalised to no drug","[1]; 1 nM aTc, 100 nM",12.9721 and 14.646 and 33.4758
same,"growth after 72 h exposure, normalised to no drug","[1]; 1 nM aTc, 200 nM",2.187 and 4.184 and 3.619
same,"growth after 72 h exposure, normalised to no drug","[1]; 1 nM aTc, 400 nM",0.0118 and 0.3256 and 1.407
same,"growth after 72 h exposure, normalised to no drug","[1]; 1 nM aTc, 800 nM",0 (2×) and 0.3116
same,"growth after 72 h exposure, normalised to no drug","[1]; 1 nM aTc, […]",95.5045
same,"growth after 72 h exposure, normalised to no drug","[1]; 500 nM aTc, 3.125 nM",100 (2×) and 130.484
same,"growth after 72 h exposure, normalised to no drug","[1]; 500 nM aTc, 6.25 nM",102.095 and 95.7689 and 98.7064
same,"growth after 72 h exposure, normalised to no drug","[1]; 500 nM aTc, 12.5 nM",106.159 and 101.462 and 104.967
same,"growth after 72 h exposure, normalised to no drug","[1]; 500 nM aTc, 25 nM",108.223 and 97.6665 and 110.496
same,"growth after 72 h exposure, normalised to no drug","[1]; 500 nM aTc, 50 nM",109.874 and 96.9998 and 112.12
same,"growth after 72 h exposure, normalised to no drug","[1]; 500 nM aTc, 100 nM",74.5373 and 61.9971 and 57.4067
same,"growth after 72 h exposure, normalised to no drug","[1]; 500 nM aTc, 200 nM",13.0647 and 13.1882 and 56.7167
same,"growth after 72 h exposure, normalised to no drug","[1]; 500 nM aTc, 400 nM",1.083 and 1.38 and 11.7035
same,"growth after 72 h exposure, normalised to no drug","[1]; 500 nM aTc, 800 nM",0 (2×) and 1.573
same,"growth after 72 h exposure, normalised to no drug","[1]; 500 nM aTc, […]",123.179
same,IC50,"[1]; PfAsnRS line, 500 nM aTc, individual repeats",116 nM and 175 nM
same,IC50,"[1]; Plasmodium falciparum, PfAsnRS line, 500 nM aTc, individual repeats",123 nM
same,IC50,"[1]; Plasmodium falciparum, read-out: Mean IC50 with 500 nM aTc, PfAsnRS line, 500 nM aTc",140 nM
same,IC50,"[1]; Plasmodium falciparum, read-out: Mean IC50 with low (1 or […])/ no aTc, PfAsnRS knockdown, low aTc",26 nM
same,Growth,"[2]; 3.125 nM OSM-S-106, 500 nM aTc",94.0541 and 124.457 and 123.311 and 110.909
same,Growth,"[2]; 3.125 nM OSM-S-106, no aTc",87.3995 and 105.933 and 109.078 and 106.271
same,Growth,"[2]; 6.25 nM OSM-S-106, 500 nM aTc",100.123 and 114.751 and 110.911 and 107.384
same,Growth,"[2]; 6.25 nM OSM-S-106, no aTc",83.7383 and 126.64 and 124.278 and 107.945
same,Growth,"[2]; 12.5 nM OSM-S-106, 500 nM aTc",87.2036 and 124.904 and 116.677 and 110.631
same,Growth,"[2]; 12.5 nM OSM-S-106, no aTc",66.2785 and 97.9464 and 116.025 and 105.41
same,Growth,"[2]; 200 nM OSM-S-106, 500 nM aTc",11.4175 and 15.1341 and 15.4371 and 10.7452
same,Growth,"[2]; 200 nM OSM-S-106, no aTc",9.827 and 15.4022 and 15.1307 and 8.291
same,IC50,"[2]; PfGDH3 line, 500 nM aTc, individual repeats",22.8 nM and 69.5 nM and 36.5 nM and 30.2 nM
same,IC50,"[2]; Plasmodium falciparum, read-out: Mean IC50 with 500 nM aTc, PfGDH3 line, 500 nM aTc",40 nM
same,IC50,"[2]; Plasmodium falciparum, read-out: Mean IC50 with low (1 or […])/ no aTc, PfGDH3 knockdown, no aTc",46 nM
same,"growth after 72 h exposure, normalised to no drug","[3]; 500 nM aTc, 0.488281 nM",115.319 and 105.291 and 111.528
same,"growth after 72 h exposure, normalised to no drug","[3]; 500 nM aTc, 0.976562 nM",113.41 and 102.567 and 108.441
same,"growth after 72 h exposure, normalised to no drug","[3]; 500 nM aTc, 1.95312 nM",108.529 and 100.357 and 100.986
same,"growth after 72 h exposure, normalised to no drug","[3]; 500 nM aTc, 3.90625 nM",110.366 and 98.6162 and 100.564
same,"growth after 72 h exposure, normalised to no drug","[3]; 500 nM aTc, 7.8125 nM",101.389 and 100.305 and 97.246
same,"growth after 72 h exposure, normalised to no drug","[3]; 500 nM aTc, 31.25 nM",11.2119 and 13.2391 and 14.7628
same,"growth after 72 h exposure, normalised to no drug","[3]; 500 nM aTc, 62.5 nM",1.785 and 2.763 and 1.994
same,"growth after 72 h exposure, normalised to no drug","[3]; 500 nM aTc, 125 nM",0.2373 and 0.4204 and 0.2459
same,"growth after 72 h exposure, normalised to no drug","[3]; 500 nM aTc, 250 nM",0.2337 and 0.2689 and 0.2037
same,"growth after 72 h exposure, normalised to no drug","[3]; no aTc, 0.488281 nM",115.9 and 108.506 and 115.265
same,"growth after 72 h exposure, normalised to no drug","[3]; no aTc, 0.976562 nM",107.637 and 104.459 and 111.884
same,"growth after 72 h exposure, normalised to no drug","[3]; no aTc, 1.95312 nM",103.621 and 102.992 and 106.407
same,"growth after 72 h exposure, normalised to no drug","[3]; no aTc, 3.90625 nM",93.8123 and 99.6909 and 104.029
same,"growth after 72 h exposure, normalised to no drug","[3]; no aTc, 7.8125 nM",30.4373 and 37.6726 and 51.4607
same,"growth after 72 h exposure, normalised to no drug","[3]; no aTc, 31.25 nM",0.5987 and 0.9711 and 0.5614
same,"growth after 72 h exposure, normalised to no drug","[3]; no aTc, 62.5 nM",0.1353 and 0.2821 and 0.05072
same,"growth after 72 h exposure, normalised to no drug","[3]; no aTc, 125 nM",0.1322 and 0.3476 and 0.0472
same,"growth after 72 h exposure, normalised to no drug","[3]; no aTc, 250 nM",0.1415 and 0.3214 and 0.1916
same,IC50,"[3]; PfNT4 line, 500 nM aTc, individual repeats",20.5 nM and 21.4 nM
